Measurements: patent publication EP0111607A1, “Tropyl and pseudotropyl alkyl-benzoates and their use in migraine treatment” (MERRELL TORAUDE ET COMPAGNIE, priority 1982, dated 1984)

Biological target: T1, 5-HT M-receptor (Oryctolagus cuniculus, UniProt G1TUQ4)
T1 sequence (G1TUQ4 24-513): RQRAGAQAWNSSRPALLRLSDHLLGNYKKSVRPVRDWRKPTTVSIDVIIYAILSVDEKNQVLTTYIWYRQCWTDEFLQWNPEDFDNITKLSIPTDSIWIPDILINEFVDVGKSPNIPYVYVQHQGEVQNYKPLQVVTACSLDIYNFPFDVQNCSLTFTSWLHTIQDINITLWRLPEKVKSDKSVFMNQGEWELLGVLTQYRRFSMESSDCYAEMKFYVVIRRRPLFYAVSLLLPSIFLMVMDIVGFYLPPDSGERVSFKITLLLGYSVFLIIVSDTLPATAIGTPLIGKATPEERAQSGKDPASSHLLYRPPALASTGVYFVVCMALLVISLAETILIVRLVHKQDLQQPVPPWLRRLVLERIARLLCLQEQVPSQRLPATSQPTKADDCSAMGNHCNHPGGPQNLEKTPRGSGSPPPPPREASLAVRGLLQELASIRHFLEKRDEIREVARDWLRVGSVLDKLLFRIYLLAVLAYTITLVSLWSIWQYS
Experiment: not given
Details: 5-HT M-receptor antagonism; reported by Fozard et al., Eur. J. Pharmacol. 59(1979) and 49(1978), same procedure; cited from earlier work

| Compound | pA2 |
| --- | --- |
| CCN(CC)CCNC(=O)c1cc(Cl)c(N)cc1OC [metoclopramide] | 7.2 |
| COC(=O)[C@H]1[C@@H](OC(=O)c2ccccc2)C[C@@H]2CC[C@H]1N2 [nor(-)cocaine] | 7.7 |
| CN1C2CCC1CC(OC(=O)c1ccccc1)C2 (stereo not shown) [pseudotropyl benzoate] | 7.0 |
| CN1[C@@H]2CC[C@H]1C[C@@H](OC(=O)c1ccccc1)C2 [tropyl benzoate] | 7.2 |

Same assay, conditions: 5-HT M-receptor antagonism; tests referred to with European Patent Application No. 82401060.7; cited from earlier work

| Compound | pA2 |
| --- | --- |
| COc1cc(C(=O)OC2CC3CCC(C2)N3C)cc(OC)c1OC (stereo not shown) [pseudotropyl-3,4,5-trimethoxybenzoate] | 5.7 |
| COc1cc(OC)cc(C(=O)OC2CC3CCC(C2)N3C)c1 (stereo not shown) [pseudotropyl-3,5-dimethoxybenzoate] | 6.6 |
| COc1ccc(C(=O)O[C@H]2C[C@H]3CC[C@@H](C2)N3C)cc1OC [tropyl 3,4-dimethoxybenzoate] | 7.2 |
| CN1C2CCC1CC(OC(=O)c1ccc(Cl)cc1)C2 (stereo not shown) [tropyl 4-chlorobenzoate] | 7.0 |
| Cc1ccc(C(=O)O[C@H]2C[C@H]3CC[C@@H](C2)N3C)cc1 [tropyl 4-methylbenzoate] | 7.8 |
| CN1C2CCC1CC(OC(=O)c1ccc(Cl)c(Cl)c1)C2 (stereo not shown) [tropyl-3,4-dichlorobenzoate] | 7.8 |

Biological target: T1, 5-HT M-receptor
Experiment: pA2 against 5-HT in the isolated rabbit heart
Details: Table II, representative compounds of Formula I
Description: The activity of the compounds against 5-HT can be assessed by determining their pA2 values in the isolated rabbit heart as described by Fozard et at Europ. J. Pharmacol. 59, 195-210 (1979). In the method described the molar concentration of antagonist which reduces the effects of twice the ED50 of 5-HT to that of the ED50 in the absence of antagonist is determined. The pA2 value is the negative logarithm of said molar concentrations.

| Compound | pA2 5-HT |
| --- | --- |
| Cc1cc(C)cc(C(=O)OC2CC3CCC(C2)N3C)c1 (stereo not drawn) [pseudotropyl 3,5-dimethylbenzoate, 3,5-DIMETHYL-BENZOIC ACID EXO-8-METHYL-8-AZABICYCLO[3,2,1]OCT-3-YL ESTER] | 8.9 |
| Cc1ccc(C(=O)OC2CC3CCC(C2)N3C)c(C)c1 (stereo not shown) [tropyl 2,4-dimethylbenzoate] | 8.8 |
| Cc1ccc(C)c(C(=O)OC2CC3CCC(C2)N3C)c1 (stereo not shown) [tropyl 2,5-dimethylbenzoate] | 8.6 |
| Cc1ccccc1C(=O)OC1CC2CCC(C1)N2C (stereo not shown) [tropyl 2-methylbenzoate] | 8.1. |
| Cc1ccc(C(=O)OC2CC3CCC(C2)N3C)cc1C (stereo not drawn) [tropyl 3,4-dimethylbenzoate, 3,4-DIMET[…] ENDO-8-METHYL-8-AZABICYCLO[3,2,1]OCT-3-YL ESTER] | 8.2 |

Same assay, conditions: Table III, related compounds for comparative purposes

| Compound | pA2 5-HT |
| --- | --- |
| CN1C2CCC1CC(OC(=O)c1ccccc1)C2 (stereo not shown) [pseudotropyl benzoate] | 7.0 |
| CN1C2CCC1CC(OC(=O)c1ccc(Cl)c(Cl)c1)C2 (stereo not shown) [pseudotropyl-3,4-dichlorobenzoate] | 7.5 |
| CN1C2CCC1CC(OC(=O)c1ccc(Cl)cc1)C2 (stereo not shown) [pseudotropyl-4-chlorobenzoate] | 6.7 |
| Cc1cccc(C(=O)OC2CC3CCC(C2)N3C)c1 (stereo not shown) [tropyl 3-methylbenzoate] | 8.1 |
